One compound from BindingDB's records for patent US20250136619 (Halda Therapeutics OPCO, 2025) can be followed below.

The test concerns the target Tyrosine-protein kinase BTK (Homo sapiens, UniProt Q06187). Put plainly: Assay for Binding Affinity to BTK. Here is the method:
Compounds were tested using a KdELECT assay. Kinase-tagged T7 phage strains were prepared in an E. coli host derived from the BL21 strain. E. coli were grown to log-phase and infected with T7 phage and incubated with shaking at 32° C. until lysis. The lysates were centrifuged and filtered to remove cell debris. The remaining kinases were produced in HEK-293 cells and subsequently tagged with DNA for qPCR detection. Streptavidin-coated magnetic beads were treated with biotinylated small molecule ligands for 30 minutes at room temperature to generate affinity resins for kinase assays. The liganded beads were blocked with excess biotin and washed with blocking buffer (SeaBlock (Pierce), 1% BSA, 0.05% Tween 20, 1 mM DTT) to remove unbound ligand and to reduce non-specific binding. Binding reactions were assembled by combining kinases, liganded affinity beads, and test compounds in 1× binding buffer (20% SeaBlock, 0.17×PBS, 0.05% Tween 20, 6 mM DTT). Test compounds were prepared as 111X stocks in 100% DMSO. Kd values were determined using an 11-point 3-fold compound dilution series with three DMSO control points. All compounds for Kd measurements are distributed by acoustic transfer (non-contact dispensing) in 100% DMSO. The compounds were then diluted directly into the assays such that the final concentration of DMSO was 0.9%. […] The kinase concentration in the eluates was measured by qPCR.

Tyrosine-protein kinase BTK, sequence (Q06187 whole entry): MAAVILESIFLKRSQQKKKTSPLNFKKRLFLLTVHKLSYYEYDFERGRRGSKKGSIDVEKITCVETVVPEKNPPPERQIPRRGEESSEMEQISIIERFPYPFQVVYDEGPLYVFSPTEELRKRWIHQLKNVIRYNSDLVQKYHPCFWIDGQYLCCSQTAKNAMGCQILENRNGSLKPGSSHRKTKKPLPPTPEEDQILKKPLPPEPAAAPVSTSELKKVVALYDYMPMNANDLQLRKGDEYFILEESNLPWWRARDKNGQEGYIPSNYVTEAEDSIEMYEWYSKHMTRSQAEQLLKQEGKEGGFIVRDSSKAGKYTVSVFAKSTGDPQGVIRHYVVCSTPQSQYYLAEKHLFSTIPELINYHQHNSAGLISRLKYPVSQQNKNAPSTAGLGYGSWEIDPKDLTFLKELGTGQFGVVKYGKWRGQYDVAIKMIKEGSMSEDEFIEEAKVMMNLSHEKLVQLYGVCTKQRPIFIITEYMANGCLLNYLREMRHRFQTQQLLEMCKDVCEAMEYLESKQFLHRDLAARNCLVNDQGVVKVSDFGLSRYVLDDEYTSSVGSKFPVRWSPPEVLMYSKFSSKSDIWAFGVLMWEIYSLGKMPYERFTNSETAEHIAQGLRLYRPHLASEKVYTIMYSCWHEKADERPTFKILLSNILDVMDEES

As for `CCc1cnn2c(NCc3ccc(OCCOCCOCCOCCOCCOCCOCCOCCOCCOC/C=C/C(=O)N4CCC[C@@H](n5nc(-c6ccc(Oc7ccccc7)cc6)c6c(N)ncnc65)C4)nc3)cc(N3CCCC[C@H]3CCO)nc12` [US20250136619, Compound I-47], the Kd was under 0.05 µM.

As a reminder, the Kd is a measure of binding affinity in units of concentration. Read a low Kd as a tighter complex.
